Results as given in patent US6699868B2, “Pyridazinyl phenyl hydrazones useful against congestive heart failure” (Orion Corporation, priority 2000, dated 2004).

First: CC1CC(=O)NN=C1c1ccc(NN=Cc2c([N+](=O)[O-])cccc2[N+](=O)[O-])cc1 (stereo not drawn)
Second: CC1CC(=O)NN=C1c1ccc(NN=Cc2ccc([N+](=O)[O-])cc2[N+](=O)[O-])cc1 (stereo not drawn)
The melting point of the first is lower: 216 to 218 °C for the first, 278 to 280 °C for the second.

First: CCOC(=O)c1c(O)ccc(C(=NN)c2ccc(C3=NNC(=O)CC3C)cc2)c1O (stereo not drawn) [Example 3, 2,6-Dihydroxy-3-{[4-(4-methyl-6-oxo-1,4,5,6-tetrahydro-pyridazin-3-yl)-phenyl]-hydrazonomethyl}-benzoic acid Ethyl Ester]
Second: CC1CC(=O)NN=C1c1ccc(C(=NN)c2ccccc2C(=O)O)cc1 (stereo not drawn) [Example 10, 2-{[4-(4-Methyl-6-oxo-1,4,5,6-tetrahydro-pyridazin-3-yl)-phenyl]-hydrazonomethyl}-benzoic acid]
The melting point of the first is lower: 203 to 208 °C for the first, 250 to 251 °C for the second.

First: CC1CC(=O)NN=C1c1ccc(NN=Cc2cc([N+](=O)[O-])ccc2O)cc1 (stereo not drawn) [Example 5, 6-{4-[N′-(2-Hydroxy-5-nitro-benzylidene)-hydrazino]-phenyl}-5-methyl-4,5-dihydro-2H-pyridazin-3-one]
Second: CC1CC(=O)NN=C1c1ccc(NN=Cc2cc(O)ccc2O)cc1 (stereo not drawn) [Example 8, 6-{4-[N′-(2,5-Dihydroxy-benzylidene)-hydrazino]-phenyl}-5-methyl-4,5-dihydro-2H-pyridazin-3-one]
The melting point of the first is lower: 299 to 300 °C for the first, 317 to 320 °C for the second.

First: CC1CC(=O)NN=C1c1ccc(NN=Cc2cccc(O)c2O)cc1 (stereo not drawn) [Example 7, 6-{4-[N′-(2,3-Dihydroxy-benzylidene)-hydrazino]-phenyl}-5-methyl-4,5-dihydro-2H-pyridazin-3-one]
Second: CC1CC(=O)NN=C1c1ccc(NN=Cc2ccc(O)c(O)c2[N+](=O)[O-])cc1 (stereo not drawn) [Example 9, 6-{4-[N′-(3,4-Dihydroxy-2-nitro-benzylidene)-hydrazino]-phenyl}-5-methyl-4,5-dihydro-2H-pyridazin-3-one]
The melting point of the first is higher: 245 to 247 °C for the first, 239 to 241 °C for the second.

First: CC1CC(=O)NN=C1c1ccc(NN=Cc2ccccc2C(F)(F)F)cc1 (stereo not drawn) [Example 11, 6-{4-[N′-(2-trifluoromethyl-benzylidene)-hydrazino]-phenyl}-5-methyl-4,5-dihydro-2H-pyridazin-3-one]
Second: CC(=NNc1ccc(C2=NNC(=O)CC2C)cc1)c1cc(O)cc(O)c1 (stereo not drawn) [Example 13, 6-(4-{N′-[1-(3,5-Dihydroxy-phenyl)-ethylidene]-hydrazino}-phenyl)-5-methyl-4,5-dihydro-2H-pyridazin-3-one]
The melting point of the first is lower: 113 to 115 °C for the first, 162 to 166 °C for the second.

Compared with COc1c(OC(C)=O)ccc(C(=NN)c2ccc(C3=NNC(=O)CC3C)cc2)c1[N+](=O)[O-] (stereo not drawn) [Example 12, Acetic acid 2-Methoxy-4-{[4-(4-methyl-6-oxo-1,4,5,6-tetrahydro-pyridazin-3-yl)-phenyl]-hydrazonomethyl}-3-nitro-phenyl ester], COc1ccc(CCC(=NNc2ccc(C3=NNC(=O)CC3C)cc2)c2ccc(O)cc2O)cc1OC (stereo not drawn) [Example 14, 6-(4-{N′-[1-(2,4-Dihydroxy-phenyl)-3-(3,4-dimethoxy-phenyl)-propylidene]-hydrazino}-phenyl)-5-methyl-4,5-dihydro-2H-pyridazin-3-one] is lower in melting point: 220 to 223 °C for the first, 135 to 140 °C for the second.

First: O=c1[nH]nc(-c2ccc(NN=C(c3ccccc3)c3ccc(O)cc3O)cc2)c2ccccc12 [Example 15, 4-(4-{N′-[(2,4-Dihydroxy-phenyl)-phenyl-methylene]-hydrazino}-phenyl)-2H-phthalazin-1-one]
Second: O=c1[nH]nc(-c2ccc(NN=C(c3ccc(O)cc3)c3ccc(O)cc3O)cc2)c2ccccc12 [Example 16, 4-(4-{N′-[(2,4-Dihydroxy-phenyl)-(4-hydroxy-phenyl)-methylene]-hydrazino}-phenyl)-2H-phthalazin-1-one]
The melting point of the first is higher: 160 to 170 °C for the first, 150 to 160 °C for the second.

O=c1[nH]nc(-c2ccc(NN=C(c3ccc(O)cc3O)c3ccc(O)cc3O)cc2)c2ccccc12 [Example 17, 4-(4-{N′-[Bis-(2,4-dihydroxy-phenyl)-methylene]-hydrazino}-phenyl)-2H-phthalazin-1-one] gave a melting point of 140 to 146 °C.
